{
  "source": "PubChem BioAssay (NCI)",
  "note": "Values joined by “and” are separate entries in the source; they are usually repeats but may differ in a detail not shown here. Equal entries are not always repeated.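 Tested at 5 concentrations; 48 h exposure; 96-well plates; endpoints linearly interpolated, else capped at highest concentration. Here, GI50 denotes the concentration required for 50% inhibition of growth. TGI is the concentration that stops growth completely.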",
  "data": [
    {"system": "RPMI-8226 leukemia", "test": "inhibition of tumour cell growth, NCI panel, 48 h", "units": {"GI50": "nM", "TGI": "µM"}, "values": [
      {"smiles": "C=CC12CCN(CC1)C(C(O)c1ccnc3ccc(OC)cc13)C2", "note": "(centres undefined)", "GI50": "> 100000", "TGI": "> 100"},
      {"smiles": "O=C(Nc1nc(-c2c[nH]c3ccccc23)cs1)c1n[nH]c(=O)c2ccccc12", "GI50": 957, "TGI": 58.2},
      {"smiles": "CN(C)CCN1CCC(Cc2ccccc2)CC1", "GI50": "> 80000", "TGI": "> 80"},
      {"smiles": "COc1cc2c3c(n(C)c(=O)c2cc1OC)-c1cc2c(cc1C3=O)OCO2", "TGI": "> 100"},
      {"smiles": "COc1ccc(/C=C\\c2cc(OC)c(OC)c(OC)c2)cc1OCC(=O)O", "TGI": "> 100"},
      {"smiles": "O=C(CNc1ccc(Cl)cc1Cl)Nn1c(-c2ccccc2)nc2ccccc2c1=O", "TGI": 71.3},
      {"smiles": "CO[C@@H]1CC[C@]2(C)OC[C@H](C)[C@@H]3C[C@@H](C)[C@@H](OC(C)=O)[C@@H]4[C@H]3[C@@H]2O[C@H]4C[C@@]1(C)O", "GI50": "> 100000", "TGI": "> 100"},
      {"smiles": "CSC[C@H](NC(=O)COc1cccc2cnccc12)C(=O)NC(Cc1ccccc1)C(O)C(=O)N1CSC[C@H]1C(=O)NC(C)(C)C", "note": "(some centres undefined)", "TGI": "> 100"},
      {"smiles": "O=C(Nc1ncc(Cc2cccc(C(F)(F)F)c2)s1)c1ccc2c(c1)OCCO2", "GI50": 483, "TGI": "> 100"},
      {"smiles": "NC(=O)c1cc(I)ccc1NC(=O)/C=C/c1ccccc1", "GI50": 357, "TGI": 4.96},
      {"smiles": "COc1ccc(CNc2c3ccccc3nc3ccccc23)cc1F", "GI50": 2640, "TGI": 7.25},
      {"smiles": "CNc1cc2oc(=O)cc(C)c2cc1C", "TGI": "> 100"},
      {"smiles": "NCCCn1c2c(c3ccc([N+](=O)[O-])cc3c1=O)C(=O)c1cc(I)ccc1-2", "GI50": 21.8, "TGI": 0.265}
    ]},
    {"system": "SF-295 CNS", "test": "inhibition of tumour cell growth, NCI panel, 48 h", "values": [
      {"smiles": "Nc1c(C(=O)Nc2ccccn2)sc2nc3c(cc12)C(=O)CCC3", "GI50": "473 nM", "TGI": "> 100 µM"},
      {"smiles": "COc1ccc2c(=O)oc3c(OC)cc(CCN(C)C)c4c(=O)oc1c2c34", "GI50": "15000 nM and 6990 nM", "TGI": "28.5 µM and 14.3 µM"},
      {"smiles": "COc1ccc(Cl)cc1NC(=O)c1ccc(NC2=C(Cl)C(=O)N(Cc3ccccc3)C2=O)cc1", "GI50": "36200 nM", "TGI": "> 100 µM"},
      {"smiles": "Cc1cccc(NC2=C(Cl)C(=O)c3nc(C)ccc3C2=O)c1", "GI50": "1490 nM", "TGI": "2.96 µM"},
      {"smiles": "CCCCCCCCSC1=C(Cl)C(=O)C(OC)=C(OC)C1=O", "TGI": "47.4 µM"},
      {"smiles": "COC(=O)C1=CN(CC2=CC(=O)C(C)=CC2=O)C=C(C(=O)OC)C1c1ccccc1OC", "GI50": "24300 nM", "TGI": "> 55.5 µM"},
      {"smiles": "COc1cccc2c1O/C(=C\\c1ccc([N+](=O)[O-])s1)C2=O", "GI50": "> 90500 nM", "TGI": "> 100 µM"},
      {"smiles": "COC(=O)/C=C/c1cc(OC(C)=O)c2c(c1)C(C(=O)OC)C(c1ccc(OC(C)=O)c(OC(C)=O)c1)O2", "note": "(centres undefined)", "GI50": "222 nM", "TGI": "14.1 µM"},
      {"smiles": "O=C(O)c1ccc(CNCc2ccccc2)cc1", "TGI": "> 100 µM"},
      {"smiles": "C=C(C)C(C1C=C(CCC(C=O)=C(C)C)C(=O)O1)C1(OC)C=C(C)C(=O)O1", "note": "(centres undefined)", "GI50": "> 100000 nM", "TGI": "> 100 µM"},
      {"smiles": "CC(C)=CCC1=C(O)c2ccccc2C(=O)C1=O", "GI50": "> 100000 nM and 22700 nM", "TGI": "> 100 µM"},
      {"smiles": "O=[N+]([O-])c1ccccc1N=Nc1c(O)[nH]c2c(Cl)cc(Cl)cc12", "TGI": "> 61 µM"},
      {"smiles": "NC(=S)N/N=C/c1ncccc1O", "GI50": "2470 nM", "TGI": "27.1 µM and 3.94 µM"},
      {"smiles": "O=C(CC(=O)Nc1ccccc1)NNC(Sc1ccccc1)c1cc(N=Nc2ccc(Br)cc2)ccc1O", "note": "(centres undefined)", "TGI": "> 10 µM"},
      {"smiles": "Cc1cc(C(=O)CSC(=S)SC(C)(C)C)ccc1Cl", "TGI": "37.1 µM"},
      {"smiles": "C=CC12CCN(CC1)C(C(O)c1ccnc3ccc(OC)cc13)C2", "note": "(centres undefined)", "GI50": "> 100000 nM", "TGI": "> 100 µM"},
      {"smiles": "O=C(Nc1nc(-c2c[nH]c3ccccc23)cs1)c1n[nH]c(=O)c2ccccc12", "GI50": "1550 nM", "TGI": "21.9 µM"},
      {"smiles": "CN(C)CCN1CCC(Cc2ccccc2)CC1", "GI50": "> 80000 nM", "TGI": "> 80 µM"},
      {"smiles": "COc1cc2c3c(n(C)c(=O)c2cc1OC)-c1cc2c(cc1C3=O)OCO2", "TGI": "> 61.3 µM"},
      {"smiles": "COc1ccc(/C=C\\c2cc(OC)c(OC)c(OC)c2)cc1OCC(=O)O", "TGI": "35.8 µM"},
      {"smiles": "O=C(CNc1ccc(Cl)cc1Cl)Nn1c(-c2ccccc2)nc2ccccc2c1=O", "TGI": "30.1 µM"},
      {"smiles": "CO[C@@H]1CC[C@]2(C)OC[C@H](C)[C@@H]3C[C@@H](C)[C@@H](OC(C)=O)[C@@H]4[C@H]3[C@@H]2O[C@H]4C[C@@]1(C)O", "GI50": "> 100000 nM", "TGI": "> 100 µM"},
      {"smiles": "CSC[C@H](NC(=O)COc1cccc2cnccc12)C(=O)NC(Cc1ccccc1)C(O)C(=O)N1CSC[C@H]1C(=O)NC(C)(C)C", "note": "(some centres undefined)", "TGI": "> 100 µM"},
      {"smiles": "O=C(Nc1ncc(Cc2cccc(C(F)(F)F)c2)s1)c1ccc2c(c1)OCCO2", "GI50": "244 nM", "TGI": "1.84 µM"},
      {"smiles": "NC(=O)c1cc(I)ccc1NC(=O)/C=C/c1ccccc1", "GI50": "326 nM", "TGI": "3.38 µM"},
      {"smiles": "COc1ccc(CNc2c3ccccc3nc3ccccc23)cc1F", "GI50": "2680 nM", "TGI": "10.4 µM"},
      {"smiles": "CNc1cc2oc(=O)cc(C)c2cc1C", "TGI": "> 100 µM"},
      {"smiles": "NCCCn1c2c(c3ccc([N+](=O)[O-])cc3c1=O)C(=O)c1cc(I)ccc1-2", "GI50": "< 21.8 nM", "TGI": "1.53 µM"}
    ]},
    {"system": "UO-31 renal", "test": "inhibition of tumour cell growth, NCI panel, 48 h", "values": [
      {"smiles": "Nc1c(C(=O)Nc2ccccn2)sc2nc3c(cc12)C(=O)CCC3", "GI50": "9.45 µM", "TGI": "> 100 µM"},
      {"smiles": "COc1ccc2c(=O)oc3c(OC)cc(CCN(C)C)c4c(=O)oc1c2c34", "GI50": "17.3 µM and 8.48 µM", "TGI": "31.1 µM and 15.6 µM"},
      {"smiles": "COc1ccc(Cl)cc1NC(=O)c1ccc(NC2=C(Cl)C(=O)N(Cc3ccccc3)C2=O)cc1", "GI50": "> 100 µM", "TGI": "> 100 µM"},
      {"smiles": "Cc1cccc(NC2=C(Cl)C(=O)c3nc(C)ccc3C2=O)c1", "GI50": "1.29 µM", "TGI": "2.59 µM"},
      {"smiles": "COc1cc2c(cc1OCCCN1CCN(CCCOc3cc4c(cc3OC)C(=O)N3CC(F)(F)C[C@H]3C=N4)CC1)N=C[C@@H]1CC(F)(F)CN1C2=O", "GI50": "11.4 µM", "TGI": "25.7 µM"},
      {"smiles": "CCCCCCCCSC1=C(Cl)C(=O)C(OC)=C(OC)C1=O", "TGI": "25.7 µM"},
      {"smiles": "COC(=O)C1=CN(CC2=CC(=O)C(C)=CC2=O)C=C(C(=O)OC)C1c1ccccc1OC", "GI50": "16.4 µM", "TGI": "31.2 µM"},
      {"smiles": "COc1cccc2c1O/C(=C\\c1ccc([N+](=O)[O-])s1)C2=O", "GI50": "1.08 µM", "TGI": "3.9 µM"},
      {"smiles": "COC(=O)/C=C/c1cc(OC(C)=O)c2c(c1)C(C(=O)OC)C(c1ccc(OC(C)=O)c(OC(C)=O)c1)O2", "note": "(centres undefined)", "GI50": "0.99 µM", "TGI": "> 72.3 µM"},
      {"smiles": "O=C(O)c1ccc(CNCc2ccccc2)cc1", "TGI": "> 100 µM"},
      {"smiles": "C=C(C)C(C1C=C(CCC(C=O)=C(C)C)C(=O)O1)C1(OC)C=C(C)C(=O)O1", "note": "(centres undefined)", "GI50": "97.1 µM", "TGI": "> 100 µM"},
      {"smiles": "CC(C)=CCC1=C(O)c2ccccc2C(=O)C1=O", "GI50": "> 100 µM", "TGI": "> 100 µM"},
      {"smiles": "O=[N+]([O-])c1ccccc1N=Nc1c(O)[nH]c2c(Cl)cc(Cl)cc12", "TGI": "> 100 µM"},
      {"smiles": "NC(=S)N/N=C/c1ncccc1O", "GI50": "1.48 µM", "TGI": "> 33.8 µM and 6.46 µM"},
      {"smiles": "O=C(CC(=O)Nc1ccccc1)NNC(Sc1ccccc1)c1cc(N=Nc2ccc(Br)cc2)ccc1O", "note": "(centres undefined)", "TGI": "> 10 µM"},
      {"smiles": "Cc1cc(C(=O)CSC(=S)SC(C)(C)C)ccc1Cl", "TGI": "42.6 µM"},
      {"smiles": "C=CC12CCN(CC1)C(C(O)c1ccnc3ccc(OC)cc13)C2", "note": "(centres undefined)", "GI50": "39.7 µM", "TGI": "> 100 µM"},
      {"smiles": "O=C(Nc1nc(-c2c[nH]c3ccccc23)cs1)c1n[nH]c(=O)c2ccccc12", "GI50": "8.46 µM", "TGI": "> 67.7 µM"},
      {"smiles": "CN(C)CCN1CCC(Cc2ccccc2)CC1", "GI50": "> 80 µM", "TGI": "> 80 µM"},
      {"smiles": "COc1cc2c3c(n(C)c(=O)c2cc1OC)-c1cc2c(cc1C3=O)OCO2", "TGI": "> 100 µM"},
      {"smiles": "COc1ccc(/C=C\\c2cc(OC)c(OC)c(OC)c2)cc1OCC(=O)O", "TGI": "> 94.8 µM"},
      {"smiles": "O=C(CNc1ccc(Cl)cc1Cl)Nn1c(-c2ccccc2)nc2ccccc2c1=O", "TGI": "48.4 µM"},
      {"smiles": "CO[C@@H]1CC[C@]2(C)OC[C@H](C)[C@@H]3C[C@@H](C)[C@@H](OC(C)=O)[C@@H]4[C@H]3[C@@H]2O[C@H]4C[C@@]1(C)O", "GI50": "> 100 µM", "TGI": "> 100 µM"},
      {"smiles": "CSC[C@H](NC(=O)COc1cccc2cnccc12)C(=O)NC(Cc1ccccc1)C(O)C(=O)N1CSC[C@H]1C(=O)NC(C)(C)C", "note": "(some centres undefined)", "TGI": "> 100 µM"},
      {"smiles": "O=C(Nc1ncc(Cc2cccc(C(F)(F)F)c2)s1)c1ccc2c(c1)OCCO2", "GI50": "1.09 µM", "TGI": "> 100 µM"},
      {"smiles": "NC(=O)c1cc(I)ccc1NC(=O)/C=C/c1ccccc1", "GI50": "1.77 µM", "TGI": "> 48.9 µM"},
      {"smiles": "COc1ccc(CNc2c3ccccc3nc3ccccc23)cc1F", "GI50": "1.49 µM", "TGI": "6.15 µM"},
      {"smiles": "NCCCn1c2c(c3ccc([N+](=O)[O-])cc3c1=O)C(=O)c1cc(I)ccc1-2", "GI50": "0.0273 µM", "TGI": "1.5 µM"}
    ]}
  ]
}
